Source: patent publication US12365696B2, “Small-molecule focal adhesion kinase (FAK) inhibitors” (DANA-FARBER CANCER INSTITUTE, INC., priority 2019, dated 2025)

What was measured:
PTK2 (FAK) = PTK2 (FAK) (Homo sapiens (Human), UniProt Q05397); assay: Z′-LYTE kinase assay (SelectScreen Biochemical Kinase Profiling), enzymatic IC50; conditions: enzymatic, Z′-LYTE; read-out: FAK IC50
Procedure: Enzymatic IC50 data was obtained through ThermoFisher Scientific SelectScreen™ Biochemical Kinase Profiling Service, using a Z′-LYTE™ kinase-specific assay, as described below.
The test compounds were screened in 1% dimethyl sulfoxide (DMSO) (final) in the well. For 10 point titrations, 3-fold serial dilutions were conducted from the starting concentration.
All peptide/kinase mixtures were diluted to a 2× working concentration in the appropriate kinase buffer (see section kinase specific assay conditions for a complete description).
All ATP solutions were diluted to a 4× working concentration in kinase buffer (50 mM 4-(2-hydroxyethyl)-1-piperazineethanesulfonic acid (HEPES) pH 7.5, 0.01% BRIJ-35, 10 mM MgCl2, 1 mM ethylene glycol-bis(β-aminoethyl ether)-N,N,N′,N′-tetraacetic acid (EGTA)). ATP Km apparent was previously determined using a Z′-LYTE assay.
The development reagent was diluted in development buffer (see section kinase-specific assay conditions—direct and cascade for a complete description).
Using a bar-coded Corning, low volume NBS, black 384-well plate (Corning Cat. #4514), 100 nL of 100× test compound in 100% DMSO was added. […] The plate was then shaken for 30 seconds and held at room temperature for a 60 minute kinase reaction incubation period. At which point 5 μL of development reagent solution was added and the plate was shaken for 30 seconds. The plate was held again at room temperature for a 60 minute development reaction incubation period and then read on a fluorescence plate reader and analyzed.
The 2×PTK2 (FAK)/Tyr 07 mixture was prepared in 50 mM HEPES pH 7.5, 0.01% BRIJ-35, 10 mM MgCl2, 1 mM EGTA. […] After the 1 hour kinase reaction incubation period, 5 μL of a 1:16 dilution of development reagent B was added.
SelectScreen Kinase Profiling Service uses XLfit from ID Business Solutions (IDBS). The dose response curve was curve fit to model number 205 (sigmoidal dose-response model).

MDA-MB-231 cells [1] = assay: 2D-adherent monolayer cell viability (Cell Titer-Glo), 120 hrs; type: cell-based; conditions: Homo sapiens
Procedure: (§1) For 2D-adherent monolayer experiments, MDA-MB-231 cells were plated in 384-well format and allowed to adhere overnight. Cells were treated with indicated molecules from compound stock plates using a JANUS® Workstation pin tool for 120 hrs. To measure cell viability, Cell Titer-Glo® was added to wells for 15 minutes at room temperature and luminescence was measured on an EnVision™ 2104 Multilabel Plate Reader.
Inventive compound treatment (0.00063-20 μM) led to antiproliferative effects in MDA-MB-231 cells cultured as 2D-adherent monolayers or as ultra-low adherent 3D-spheroid suspensions (Table 5).

MDA-MB-231 cells [2] = assay: ultra-low adherent 3D-spheroid suspension cell viability (3D Cell Titer-Glo), 120 hours; type: cell-based; conditions: Homo sapiens
Procedure: as §1, with “ultra-low adherent 3D-spheroid suspensions,” for “2D-adherent monolayer experiments,”, “format in media containing 10% Matrigel®” for “format”, “form spheroids” for “adhere”, “hours.” for “hrs.”, “viability, 3D” for “viability,”

Sequence of PTK2 (FAK) (Q05397 whole entry): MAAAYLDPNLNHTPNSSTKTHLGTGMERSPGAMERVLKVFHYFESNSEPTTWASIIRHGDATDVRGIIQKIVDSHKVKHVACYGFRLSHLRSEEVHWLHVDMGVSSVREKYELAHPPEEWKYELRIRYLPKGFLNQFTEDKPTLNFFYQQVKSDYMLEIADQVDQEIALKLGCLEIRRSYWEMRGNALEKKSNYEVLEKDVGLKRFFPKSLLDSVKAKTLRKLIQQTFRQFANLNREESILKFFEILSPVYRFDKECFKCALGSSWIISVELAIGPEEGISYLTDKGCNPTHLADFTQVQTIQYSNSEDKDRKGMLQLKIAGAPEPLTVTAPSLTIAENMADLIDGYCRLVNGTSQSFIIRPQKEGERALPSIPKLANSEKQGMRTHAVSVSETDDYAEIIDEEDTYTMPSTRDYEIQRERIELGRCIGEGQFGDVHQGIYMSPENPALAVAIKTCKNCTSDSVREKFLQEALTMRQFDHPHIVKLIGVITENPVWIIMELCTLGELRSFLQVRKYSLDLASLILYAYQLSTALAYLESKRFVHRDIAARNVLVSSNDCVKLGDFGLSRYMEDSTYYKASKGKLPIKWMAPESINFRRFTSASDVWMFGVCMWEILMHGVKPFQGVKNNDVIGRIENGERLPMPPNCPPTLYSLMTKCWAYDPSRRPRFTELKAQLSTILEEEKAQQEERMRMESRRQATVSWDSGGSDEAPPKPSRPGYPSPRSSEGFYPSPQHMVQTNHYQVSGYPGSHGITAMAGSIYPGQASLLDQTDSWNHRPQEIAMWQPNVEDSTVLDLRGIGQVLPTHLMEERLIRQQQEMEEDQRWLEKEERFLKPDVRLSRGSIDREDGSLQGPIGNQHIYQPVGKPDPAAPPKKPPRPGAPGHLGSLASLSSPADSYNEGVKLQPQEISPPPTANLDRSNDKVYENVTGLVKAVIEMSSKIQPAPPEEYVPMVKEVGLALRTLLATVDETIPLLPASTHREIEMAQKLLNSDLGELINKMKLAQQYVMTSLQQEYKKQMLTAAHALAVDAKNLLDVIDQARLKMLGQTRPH

Structure (SMILES) | IC50 (PTK2 (FAK)) [nM] | IC50 (MDA-MB-231 cells [1]) [nM] | IC50 (MDA-MB-231 cells [2]) [nM]
COc1cc(N2CCNCC2)ccc1Nc1ncc2c(n1)N(C)c1sc(C)nc1C(=O)N2C [Compound 12, 6-((2-methoxy-4-(piperazin-1-yl)phenyl)amino)-2,4,9-trimethyl-4,9-dihydro-10H-pyrimido[5,4-b]thiazolo[5,4-e][1,4]diazepin-10-one] | 43.5 | > 10000 | 2500
COc1cc(N2CCN(C)CC2)ccc1Nc1ncc2c(n1)N(C)c1sc(C)nc1C(=O)N2C [Compound 14, 6-((2-methoxy-4-(4-methylpiperazin-1-yl)phenyl)amino)-2,4,9-trimethyl-4,9-dihydro-10H-pyrimido[5,4-b]thiazolo[5,4-e][1,4]diazepin-10-one] | 30.3 | > 10000 | 2300
CCOc1cc(N2CCN(C)CC2)ccc1Nc1ncc2c(n1)N(C)c1sc(C)nc1C(=O)N2C [Compound 16, 6-((2-ethoxy-4-(4-methylpiperazin-1-yl)phenyl)amino)-2,4,9-trimethyl-4,9-dihydro-10H-pyrimido[5,4-b]thiazolo[5,4-e][1,4]diazepin-10-one] | 54.5 | > 10000 | 6100
COc1cc(N2CCN(C)CC2)c(C)cc1Nc1ncc2c(n1)N(C)c1sc(C)nc1C(=O)N2C [Compound 18, 6-((2-methoxy-5-methyl-4-(4-methylpiperazin-1-yl)phenyl)amino)-2,4,9-trimethyl-4,9-dihydro-10H-pyrimido[5,4-b]thiazolo[5,4-e][1,4]diazepin-10-one] | 31.5 | > 10000 | 7700
COc1cc(C2CCN(C)CC2)ccc1Nc1ncc2c(n1)N(C)c1sc(C)nc1C(=O)N2C [Compound 19, 6-((2-methoxy-4-(1-methylpiperidin-4-yl)phenyl)amino)-2,4,9-trimethyl-4,9-dihydro-10H-pyrimido[5,4-b]thiazolo[5,4-e][1,4]diazepin-10-one] | 51.9 | 8900 | 3700
COc1cc(N2CCN(CCO)CC2)ccc1Nc1ncc2c(n1)N(C)c1sc(C)nc1C(=O)N2C [Compound 20, 6-((4-(4-(2-hydroxyethyl)piperazin-1-yl)-2-methoxyphenyl)amino)-2,4,9-trimethyl-4,9-dihydro-10H-pyrimido[5,4-b]thiazolo[5,4-e][1,4]diazepin-10-one] | 73.9 | > 10000 | > 10000
CNC(=O)c1ccc(Nc2ncc3c(n2)N(C)c2sc(C)nc2C(=O)N3C)c(OC)c1 [Compound 21, 3-methoxy-N-methyl-4-((2,4,9-trimethyl-10-oxo-9,10-dihydro-4H-pyrimido[5,4-b]thiazolo[5,4-e][1,4]diazepin-6-yl)amino)benzamide] | 45.4 | > 10000 | > 10000
COc1cc2c(cc1Nc1ncc3c(n1)N(C)c1sc(C)nc1C(=O)N3C)CN(C)CC2 [Compound 22, 6-((6-methoxy-2-methyl-1,2,3,4-tetrahydroisoquinolin-7-yl)amino)-2,4,9-trimethyl-4,9-dihydro-10H-pyrimido[5,4-b]thiazolo[5,4-e][1,4]diazepin-10-one] | 37.8 | > 10000 | > 10000
Cc1nc2c(s1)N(C)c1nc(Nc3ccc4c(c3)CCC(=O)N4)ncc1N(C)C2=O [Compound 23, 2,4,9-trimethyl-6-((2-oxo-1,2,3,4-tetrahydroquinolin-6-yl)amino)-4,9-dihydro-10H-pyrimido[5,4-b]thiazolo[5,4-e][1,4]diazepin-10-one] | 670 | > 10000 | > 10000
COc1cc(C(=O)N2CCC(N3CCN(C)CC3)CC2)ccc1Nc1ncc2c(n1)N(C)c1sc(C)nc1C(=O)N2C [Compound 28, 6-((2-methoxy-4-(4-(4-methylpiperazin-1-yl)piperidine-1-carbonyl)phenyl)amino)-2,4,9-trimethyl-4,9-dihydro-10H-pyrimido[5,4-b]thiazolo[5,4-e][1,4]diazepin-10-one] | 77.7 | > 10000 | > 10000
CCN1C(=O)c2nc(C)sc2N(C)c2nc(Nc3ccc(N4CCC(N5CCN(C)CC5)CC4)cc3OC)ncc21 [Compound 132, 9-ethyl-6-((2-methoxy-4-(4-(4-methylpiperazin-1-yl)piperidin-1-yl)phenyl)amino)-2,4-dimethyl-4,9-dihydro-10H-pyrimido[5,4-b]thiazolo[5,4-e][1,4]diazepin-10-one] | 18.8 | > 10000 | 930
CCN1c2nc(Nc3ccc(N4CCC(N5CCN(C)CC5)CC4)cc3OC)ncc2N(C)C(=O)c2nc(C)sc21 [Compound 159, 4-ethyl-6-((2-methoxy-4-(4-(4-methylpiperazin-1-yl)piperidin-1-yl)phenyl)amino)-2,9-dimethyl-4,9-dihydro-10H-pyrimido[5,4-b]thiazolo[5,4-e][1,4]diazepin-10-one] | 22.9 | > 10000 | > 10000
CNC(=O)c1ccc(Nc2ncc3c(n2)N(C)c2sc(C)nc2C(=O)N3C)cc1 [Compound 197, N-methyl-4-((2,4,9-trimethyl-10-oxo-9,10-dihydro-4H-pyrimido[5,4-b]thiazolo[5,4-e][1,4]diazepin-6-yl)amino)benzamide] | 173 | > 10000 | 5900
COc1cc(N2CCN(S(C)(=O)=O)CC2)ccc1Nc1ncc2c(n1)N(C)c1sc(C)nc1C(=O)N2C [Compound 198, 6-((2-methoxy-4-(4-(methylsulfonyl)piperazin-1-yl)phenyl)amino)-2,4,9-trimethyl-4,9-dihydro-10H-pyrimido[5,4-b]thiazolo[5,4-e][1,4]diazepin-10-one] | 46.9 | > 10000 | > 10000
COc1cc(N2CCC(N3CCN(C)CC3)CC2)ccc1Nc1ncc2c(n1)N(C)c1sc(C(C)C)nc1C(=O)N2C [Compound 203, 2-isopropyl-6-((2-methoxy-4-(4-(4-methylpiperazin-1-yl)piperidin-1-yl)phenyl)amino)-4,9-dimethyl-4,9-dihydro-10H-pyrimido[5,4-b]thiazolo[5,4-e][1,4]diazepin-10-one] | 58.8 |  | 
COc1cc(N2CCC(N3CCN(C)CC3)CC2)ccc1Nc1ncc2c(n1)N(CC(F)(F)F)c1sc(C)nc1C(=O)N2C [Compound 204, 6-((2-methoxy-4-(4-(4-methylpiperazin-1-yl)piperidin-1-yl)phenyl)amino)-2,9-dimethyl-4-(2,2,2-trifluoroethyl)-4,9-dihydro-10H-pyrimido[5,4-b]thiazolo[5,4-e][1,4]diazepin-10-one] | 68.3 |  | 
CCCN1c2nc(Nc3ccc(N4CCC(N5CCN(C)CC5)CC4)cc3OC)ncc2N(C)C(=O)c2nc(C)sc21 [Compound 205, 6-((2-methoxy-4-(4-(4-methylpiperazin-1-yl)piperidin-1-yl)phenyl)amino)-2,9-dimethyl-4-propyl-4,9-dihydro-10H-pyrimido[5,4-b]thiazolo[5,4-e][1,4]diazepin-10-one] | 46.6 |  | 
